Experimental data published in patent US9657003B2, “Androgen receptor modulating compounds” (ORION CORPORATION, priority 2009, dated 2017).

Tests used:
human AR = human AR (Homo sapiens (Human), UniProt P10275); assay: Agonism in AR overexpressing hAR/HEK293 cells, reporter gene assay; assay type: cell-based; conditions: % of testosterone-induced AR activity at 10 μM concentration
Experimental: AR agonism of the test compound in AR overexpressing hAR/HEK293 cells was measured as % of testosterone-induced AR activity at 10 μM concentration,
Agonism of test compounds in AR overexpressing cells was measured by reporter gene assay in HEK293 cells stably transfected with an expression vector encoding full-length human AR and androgen responsive luciferase reporter gene construct. A clone expressing high levels of androgen receptor (5 times more than AR levels in AR-HEK293 cells) was selected to study agonism in AR overexpressing cells. To determine agonism, the cells were treated with increasing concentrations of the test compound. The final DMSO concentration was 1%. The test compounds were studied in triplicates and luciferase activity was determined as described above.

[1] = tested on: VCaP prostate cancer cell line; assay: Inhibition of mibolerone-induced VCaP cell proliferation (WST-1); assay type: cell-based; conditions: Homo sapiens, mibolerone-induced (usually 0.1 nM) proliferation, 4-5 days
Experimental: The IC50 value of the test compound for inhibition of mibolerone-induced VCaP cell proliferation was measured.
Cell Proliferation Assays
The ability of test compounds to inhibit prostate, cancer cell growth was studied by measuring inhibition of cell proliferation using androgen-sensitive VCaP prostate cancer cell line. […] Cell proliferation was measured using WST-1 Cell Proliferation Assay (Roche).

Sequence of human AR (P10275 whole entry): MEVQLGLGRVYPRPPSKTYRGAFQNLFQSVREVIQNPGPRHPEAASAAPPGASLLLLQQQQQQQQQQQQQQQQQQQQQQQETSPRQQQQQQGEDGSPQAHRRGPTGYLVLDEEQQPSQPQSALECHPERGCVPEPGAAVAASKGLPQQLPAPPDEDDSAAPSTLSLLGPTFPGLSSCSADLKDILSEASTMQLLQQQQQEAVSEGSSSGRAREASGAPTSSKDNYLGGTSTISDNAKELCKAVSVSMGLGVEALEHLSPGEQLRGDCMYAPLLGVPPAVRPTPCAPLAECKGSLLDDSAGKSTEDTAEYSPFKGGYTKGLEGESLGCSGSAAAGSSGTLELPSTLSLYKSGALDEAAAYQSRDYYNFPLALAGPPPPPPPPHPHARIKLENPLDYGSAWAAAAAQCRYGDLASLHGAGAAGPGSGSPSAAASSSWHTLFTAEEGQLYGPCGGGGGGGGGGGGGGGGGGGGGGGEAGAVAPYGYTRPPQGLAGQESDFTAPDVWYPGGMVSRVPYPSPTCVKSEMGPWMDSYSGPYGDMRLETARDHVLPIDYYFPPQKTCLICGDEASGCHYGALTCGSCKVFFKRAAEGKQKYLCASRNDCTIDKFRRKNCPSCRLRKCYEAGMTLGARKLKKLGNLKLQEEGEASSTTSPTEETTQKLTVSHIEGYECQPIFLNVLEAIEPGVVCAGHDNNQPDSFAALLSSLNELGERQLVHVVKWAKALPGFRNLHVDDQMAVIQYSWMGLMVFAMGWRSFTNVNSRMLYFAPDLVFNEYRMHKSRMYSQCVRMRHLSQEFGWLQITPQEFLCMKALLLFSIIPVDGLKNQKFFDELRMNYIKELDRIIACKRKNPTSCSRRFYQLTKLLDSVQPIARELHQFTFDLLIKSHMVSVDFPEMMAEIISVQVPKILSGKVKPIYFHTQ

| IC50 [1] | Compound | Agonism in AR overexpressing cells (%) (human AR) |
| --- | --- | --- |
|  | O=C(NCCc1ccc(-c2ccc(Cl)c(Cl)c2)o1)c1cc(C(=O)N2CCOCC2)n[nH]1 [Example 8, N-(2-(5-(3,4-dichlorophenyl)furan-2-yl)ethyl)-3-(morpholine-4-carbonyl)-1H-pyrazole-5-carboxamide] | 0% |
|  | Cc1cc(-c2ccn(C[C@H](C)NC(=O)c3cc(-c4ccco4)n[nH]3)n2)ccc1C#N [Example 32, (S)—N-(1-(3-(4-cyano-3-methylphenyl)-1H-pyrazol-1-yl)propan-2-yl)-3-(furan-2-yl)-1H-pyrazole-5-carboxamide] | 39% |
|  | CC(=O)c1cc(C(=O)N[C@@H](C)Cn2ccc(-c3ccc(C#N)c(Cl)c3)n2)[nH]n1 [Example 34, (S)-3-acetyl-N-(1-(3-(3-chloro-4-cyanophenyl)-1H-pyrazol-1-yl)propan-2-yl)-1H-pyrazole-5-carboxamide] | 39% |
|  | N#Cc1ccc(-c2ccn(CCNC(=O)c3cc(-c4cccnc4)n[nH]3)n2)cc1C#N [Example 52, N-(2-(3-(3,4-dicyanophenyl)-1H-pyrazol-1-yl)ethyl)-3-(pyridin-3-yl)-1H-pyrazole-5-carboxamide] | 40% |
|  | CC(O)c1cc(C(=O)N[C@@H](C)Cn2ccc(-c3ccc(C#N)c(Cl)c3)n2)[nH]n1 (stereo partly drawn) [Example 56, N—((S)-1-(3-(3-chloro-4-cyanophenyl)-1H-pyrazol-1-yl)-propan-2-yl)-3-(1-hydroxyethyl)-1H-pyrazole-5-carboxamide] | 27% |
|  | CCc1noc(C(=O)N[C@@H](C)Cn2ccc(-c3ccc(C#N)c(Cl)c3)n2)n1 [Example 91, (S)—N-(1-(3-(3-chloro-4-cyanophenyl)-1H-pyrazol-1-yl)propan-2-yl)-3-ethyl-1,2,4-oxadiazole-5-carboxamide] | 18% |
|  | Cc1nc(-c2cc(C(=O)N[C@@H](C)Cn3ccc(-c4ccc(C#N)c(Cl)c4)n3)n[nH]2)cs1 [Example 94, (S)—N-(1-(3-(3-chloro-4-cyanophenyl)-1H-pyrazol-1-yl)propan-2-yl)-5-(2-methylthiazol-4-yl)-1H-pyrazole-3-carboxamide] | 18% |
|  | Cc1noc(C(=O)N[C@@H](C)Cn2ccc(-c3ccc(C#N)c(Cl)c3)n2)n1 [Example 103, (S)—N-(1-(3-(3-chloro-4-cyanophenyl)-1H-pyrazol-1-yl)propan-2-yl)-3-methyl-1,2,4-oxadiazole-5-carboxamide] | 19% |
|  | CC(O)c1cc(C(=O)N[C@@H](C)Cn2ccc(-c3ccc(C#N)c(Cl)c3)n2)no1 (stereo partly drawn) [Example 124, N—((S)-1-(3-(3-chloro-4-cyanophenyl)-1H-pyrazol-1-yl)propan-2-yl)-5-(1-hydroxyethyl)isoxazole-3-carboxamide] | 5% |
|  | C[C@H](Cn1ccc(-c2ccc(C#N)c(Cl)c2)n1)NC(=O)c1csc(N2CCOCC2)n1 [Example 132, (R)—N-(1-(3-(3-chloro-4-cyanophenyl)-1H-pyrazol-1-yl)propan-2-yl)-2-morpholinothiazole-4-carboxamide] | 21% |
|  | Cc1c(-c2ccn(C[C@H](C)NC(=O)c3csc(C(C)O)n3)n2)ccc(C#N)c1Cl (stereo partly drawn) [Example 186, N—((S)-1-(3-(3-chloro-4-cyano-2-methylphenyl)-1H-pyrazol-1-yl)propan-2-yl)-2-(1-hydroxyethyl)thiazole-4-carboxamide] | >20% |
|  | C[C@@H](Cn1ccc(-c2ccc(C#N)c(Cl)c2)n1)NC(=O)c1csc(-c2cn[nH]c2)n1 [Example 206, (S)—N-(1-(3-(3-chloro-4-cyanophenyl)-1H-pyrazol-1-yl)propan-2-yl)-2-(1H-pyrazol-4-yl)thiazole-4-carboxamide] | >20% |
|  | CC(=O)c1cc(C(=O)NC[C@H](C)n2ccc(-c3cc(F)c(C#N)c(F)c3)n2)[nH]n1 [Example 219, (S)-3-acetyl-N-(2-(3-(4-cyano-3,5-difluorophenyl)-1H-pyrazol-1-yl)propyl)-1H-pyrazole-5-carboxamide] | 0% |
|  | C[C@H](CNC(=O)c1csc(CC#N)n1)n1ccc(-c2cc(F)c(C#N)c(F)c2)n1 [Example 222, (R)—N-(2-(3-(4-cyano-3,5-difluorophenyl)-1H-pyrazol-1-yl)propyl)-2-(cyanomethyl)thiazole-4-carboxamide] | 20% |
| 490 nM | Cc1nc(C(=O)N[C@@H](C)Cn2ccc(-c3ccc(C#N)c(Cl)c3)n2)c[nH]1 [Example 248, (S)—N-{1-[3-(3-Chloro-4-cyanophenyl)-1H-pyrazol-1-yl]propan-2-yl}-2-methyl-1H-imidazole-4-carboxamide] |  |
|  | Cc1nc(C(=O)N[C@@H](C)Cn2ccc(-c3cc(F)c(C#N)c(Cl)c3)n2)c[nH]1 [Example 249, (S)—N-{1-[3-(3-Chloro-4-cyano-5-fluorophenyl)-1H-pyrazol-1-yl]propan-2-yl}-2-methyl-1H-imidazole-4-carboxamide] | 34% |
|  | C[C@@H](Cn1ccc(-c2cc(F)c(C#N)c(Cl)c2)n1)NC(=O)c1cn2cccnc2n1 [Example 324, (S)—N-(1-(3-(3-chloro-4-cyano-5-fluorophenyl)-1H-pyrazol-1-yl)propan-2-yl)imidazo[1,2-a]pyrimidine-2-carboxamide] | 16% |
|  | C[C@@H](Cn1ccc(-c2ccc(C#N)c(Cl)c2)n1)NC(=O)c1[nH]nc2c1COCC2 [Example 338, (S)—N-(1-(3-(3-chloro-4-cyanophenyl)-1H-pyrazol-1-yl)propan-2-yl)-2,4,6,7-tetrahydropyrano[4,3-c]pyrazole-3-carboxamide] | 25% |
